The text below walks through data of publication PMC4415909 (Journal of Medicinal Chemistry, 2015).

Data set [1] relates to retinal pigment epithelium (RPE) layer of the eye. The conditions noted are these: cited from earlier work.
Another data set addresses BACE1 (Homo sapiens, UniProt P56817). The data set is classed as biochemical.
Data set [2] in a line: Human hepatocyte clearance. The data set is classed as in vitro ADME. Conditions: hepatocytes.
Data set [3] concerns major CYP-P450s (1A2, 2C9, 2D6, 3A4, 2C8, 2C19). The data set is described as follows: Multipoint cocktail DDI IC50 assay, major CYP-P450s. The conditions noted are these: human, pooled human liver microsomes (HL-MIX-102), pH 7.4. The data set is classed as in vitro ADME.
A further data set addresses hERG (Homo sapiens, UniProt Q12809). Briefly: hERG patch clamp assay in hERG-expressing CHO cells. Conditions: pH 7.35. The data set is classed as cell-based.
The conditions of data set [4]: cited from earlier work.

The structures appear in SMILES notation. Counter-ions that a name gives are not always drawn.

Sequence of BACE1 (P56817 46-457 limits assumed): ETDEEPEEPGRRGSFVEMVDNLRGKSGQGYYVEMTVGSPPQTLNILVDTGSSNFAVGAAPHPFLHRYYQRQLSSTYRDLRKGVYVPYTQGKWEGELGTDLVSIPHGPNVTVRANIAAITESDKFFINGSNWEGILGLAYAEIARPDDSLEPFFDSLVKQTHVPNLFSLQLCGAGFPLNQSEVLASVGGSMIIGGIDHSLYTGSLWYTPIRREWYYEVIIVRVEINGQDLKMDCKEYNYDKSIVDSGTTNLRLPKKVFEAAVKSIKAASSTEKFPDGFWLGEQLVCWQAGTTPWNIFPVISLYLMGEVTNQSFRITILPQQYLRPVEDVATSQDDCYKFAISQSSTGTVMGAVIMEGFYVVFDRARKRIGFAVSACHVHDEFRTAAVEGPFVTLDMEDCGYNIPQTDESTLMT
Sequence of hERG (Q12809 whole entry): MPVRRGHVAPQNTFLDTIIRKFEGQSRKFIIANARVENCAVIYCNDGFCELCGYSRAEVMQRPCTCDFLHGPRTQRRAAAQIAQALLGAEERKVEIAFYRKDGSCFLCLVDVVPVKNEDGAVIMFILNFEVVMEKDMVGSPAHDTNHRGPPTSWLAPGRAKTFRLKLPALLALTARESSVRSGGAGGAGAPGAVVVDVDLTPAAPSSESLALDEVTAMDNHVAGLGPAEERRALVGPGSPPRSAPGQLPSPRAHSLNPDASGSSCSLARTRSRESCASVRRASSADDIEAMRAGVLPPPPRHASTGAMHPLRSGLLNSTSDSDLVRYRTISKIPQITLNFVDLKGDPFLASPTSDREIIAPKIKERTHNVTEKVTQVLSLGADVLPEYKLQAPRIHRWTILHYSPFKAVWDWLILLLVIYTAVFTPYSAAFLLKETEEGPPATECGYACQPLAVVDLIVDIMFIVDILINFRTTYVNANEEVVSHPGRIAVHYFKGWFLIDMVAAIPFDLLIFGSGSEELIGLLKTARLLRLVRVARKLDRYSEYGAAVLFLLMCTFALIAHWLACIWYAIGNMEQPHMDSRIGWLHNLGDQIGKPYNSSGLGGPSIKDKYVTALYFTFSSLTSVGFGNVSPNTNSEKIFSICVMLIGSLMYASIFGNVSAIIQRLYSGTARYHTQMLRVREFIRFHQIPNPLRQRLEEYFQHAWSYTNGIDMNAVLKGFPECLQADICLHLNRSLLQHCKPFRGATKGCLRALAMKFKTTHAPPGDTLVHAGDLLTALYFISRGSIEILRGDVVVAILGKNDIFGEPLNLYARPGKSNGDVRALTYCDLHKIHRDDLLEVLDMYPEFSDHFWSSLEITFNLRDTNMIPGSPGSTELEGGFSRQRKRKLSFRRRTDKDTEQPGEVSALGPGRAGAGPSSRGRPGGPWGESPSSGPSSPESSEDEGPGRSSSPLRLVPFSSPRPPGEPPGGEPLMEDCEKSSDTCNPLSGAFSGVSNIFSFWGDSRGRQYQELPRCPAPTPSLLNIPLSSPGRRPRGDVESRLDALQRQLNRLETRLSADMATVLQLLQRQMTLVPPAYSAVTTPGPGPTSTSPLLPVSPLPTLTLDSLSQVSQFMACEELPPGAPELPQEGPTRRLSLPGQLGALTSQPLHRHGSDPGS

As for `CC1(C#Cc2cnc3c(c2)[C@]2(COC(N)=N2)c2cc(-c4cccnc4F)ccc2O3)COC1` [AMG-8718], the “finding in rat safety studies” value in data set [1] is “accumulation of autofluorescent material and degeneration of the retinal pigment epithelium (RPE) layer of the eye”.

Regarding `NC1=N[C@@]2(c3ccc(F)cc3F)CO[C@@H](c3ncco3)C[C@H]2CS1` [Compound 2, (4aR,6R,8aS)-8a-(2,4-Difluorophenyl)-6-(oxazol-2-yl)-4,4a,5,6,8,8a-hexahydropyrano[3,4-d][1,3]thiazin-2-amine], the “improvement of BACE1 potency over 1” value on BACE1 is around 2 fold. Besides, at BACE1 (LipE = BACE1 CFA pIC50 – log D), the LipE was 5.2. With `Cc1coc([C@H]2C[C@H]3CSC(N)=N[C@@]3(c3ccc(F)cc3F)CO2)n1` [Compound 3, (4aR,6R,8aS)-8a-(2,4-Difluorophenyl)-6-(4-methyloxazol-2-yl)-4,4a,5,6,8,8a-hexahydropyrano[3,4-d][1,3]thiazin-2-amine], the “improvement of BACE1 potency over compound 2” value (from here on “improvement … over compound 2”) on BACE1 is listed as “approximately 10 fold”.

Take `Cc1cc([C@H]2C[C@H]3CSC(N)=N[C@@]3(c3ccc(F)cc3F)CO2)on1` [Compound 4, (4aR, 6R, 8aS)-8a-(2,4-Difluorophenyl)-6-(3-methyl-1,2-oxazo1-5-yl)-4,4-a,5,6,8,8a-hexahydropyrano [3,4-][1,3]thiazin-2-amine]: the “improvement … over compound 2” value at BACE1 was “approximately 10 fold”. Turning to `Cn1cc([C@H]2C[C@H]3CSC(N)=N[C@@]3(c3ccc(F)cc3F)CO2)cn1` [Compound 5, (4aR,6R,8aS)-8a-(2,4-Difluorophenyl)-6-(1-methyl-1H-pyrazol-4-yl)-4,4a,5,6,8,8a-hexahydropyrano[3,4-d][1,3]thiazin-2-amine], the hepatocyte CLint in data set [2] was below 6 µL/min/1e6 cells. The “improvement … over compound 2” value at BACE1 is on record as “approximately 10 fold”. Turning to `Cc1coc([C@H]2C[C@H]3[C@@H](C)SC(N)=N[C@@]3(c3ccc(F)cc3F)CO2)n1` [Compound 9, (4R,4aR,6R,8aS)-8a-(2,4-Difluorophenyl)-4-methyl-6-(4-methyloxazol-2-yl)-4,4a,5,6,8,8a-hexahydropyrano[3,4-d][1,3]thiazin-2-amine], the 50% inhibitory concentration (IC50) in data set [3] is above 30 µM. Compound `Cc1coc([C@H]2C[C@H]3[C@@H](CF)SC(N)=N[C@@]3(c3ccc(F)cc3F)CO2)n1` [Compound 12, (4S,4aR,6R,8aS)-8a-(2,4-Difluorophenyl)-4-(fluoromethyl)-6-(4-methyloxazol-2-yl)-4,4a,5,6,8,8a-hexahydropyrano[3,4-d][1,3]thiazin-2-amine] registered an IC50 in data set [3] above 30 µM. For the compound `Cc1cc([C@H]2C[C@H]3[C@@H](CF)SC(N)=N[C@@]3(c3ccc(F)cc3F)CO2)on1` [Compound 13, (4S,4aR,6R,8aS)-8a-(2,4-Difluorophenyl)-4-(fluoromethyl)-6-(3-methyl-1,2-oxazol-5-yl)-4,4a,5,6,8,8a-hexahydropyrano[3,4-d][1,3]thiazin-2-amine], the “improvement of hERG margin compared to isoxazole 10” value at hERG is “greater than 7 fold”. The compound also gave an IC50 in data set [3] above 30 µM. In turn, `Cn1cc([C@H]2C[C@H]3[C@@H](CF)SC(N)=N[C@@]3(c3ccc(F)cc3F)CO2)cn1` [Compound 14, (4S,4aR,6R,8aS)-8a-(2,4-Difluorophenyl)-4-(fluoromethyl)-6-(1-methyl-1H-pyrazol-4-yl)-4,4a,5,6,8,8a-hexahydropyrano[3,4-d][1,3]thiazin-2-amine, Hydrochloride Salt] returned an IC50 in data set [3] above 30 µM.

As to `C[C@@]1(c2cc(-c3cncnc3)c(F)cc2F)CCSC(N)=N1` [LY2811376], in data set [1], the “finding in rat safety studies” value is “accumulation of autofluorescent material and degeneration of the retinal pigment epithelium (RPE) layer of the eye”.

With `NC1=N[C@@]2(c3cc(NC(=O)c4ccc(F)cn4)ccc3F)COC[C@H]2CS1` [LY2886721], in data set [4], the “finding that terminated phase II study” value was “abnormal liver biochemical tests”.
